Tests used:
Format in all cases: physicochemical
[1] = Radiochemical purity (TLC) of 123I-IBZM solutions stored at ambient temperature, GA vs AA stabiliser (Example 1); conditions: at the moment of use; stabiliser named as label
Protocol: ^123I-IBZM was prepared by the method of Bobeldijk et al [J. Lab. Comp. Radiopharm., 28, 1247-1256 (1990)]. A small series of ^123I-IBZM solutions was prepared: to each vial 200 μl of ^123I-IBZM in EtOH (925 MBq/cm^3) was added and subsequently 2.3 ml of aqueous phosphate buffer solution optionally containing a stabiliser, in such a way that the resulting ethanol content was 8% and the radioactive concentration at calibration time was 74 MBq/cm^3 (2 mCi/ml).
The vials were stored at ambient temperature and the radiochemical purity (RCP) was determined by thin layer chromatography (TLC) at the time of dilution with phosphate buffer and at 24 and 48 hours afterwards.

[2] = Radiochemical purity of 123I-mIBG in phosphate buffer with stabilisers (Example 5); conditions: compared with benzyl alcohol
Protocol: Two series of 5 vials of ^123I-mIBG solutions were prepared: to each vial an aliquot of 0.5 cm^3 of freshly prepared ^123I-mIBG in (stabiliser-free) Phosphate buffer (360 MBq/cm^3) was added and subsequently an aliquot of 2.0 cm^3 of an aqueous phosphate buffer solution containing a stabiliser as specified in Table 4 (below), followed by mixing. The final mixtures were not heat sterilized. The total activity per vial was 185 MBq with an RAC of 74 MBq/ml. The specific activity was 992 GBq/g mIBG base. Vials A1 to E1 were stored at 40° C. and vials A2 to E2 at 20° C. The RCP was determined at the EOS (end of synthesis) and at 3, 20 and 45 hours thereafter.

[3] = Radiochemical purity of 123I-IBZM vs gentisic acid concentration in stock solution (Example 4, FIG. 1); conditions: 0 to 0.39% w/v gentisic acid, pH 5.8, 74 MBq/ml, room temperature
Protocol: A phosphate buffer solution (300 ml) was divided into 6 vials each of 50 ml with various amounts of gentisic acid, corresponding to w/v concentrations of 0%, 0.024%, 0.050%, 0.10%, 0.20% and 0.39%. The pH was checked, and if necessary adjusted by the addition of NaOH to obtain a pH of 5.8 (±0.1). The vials were stoppered with Teflon™ coated rubber stoppers and sterilised for 15 min at 121° C.
An ethanolic solution of ^123I-IBZM (activity concentration at REF: 925 MBq/ml (25 mCi/ml)) was divided over 6 vials and into each was added an aliquot of the 6 gentisic acid buffer solutions from step (a) to obtain a final solution with a total activity content of 185 MBq (5 mCi), at a RAC of 74 MBq/ml (2 mCi/ml) and an ethanol content of 8%. The vials were stoppered with a Teflon™ coated rubber stopper and stored at room temperature. The RCP was measured at various time points after EOS.

[4] = Discolouration / heat sterilisation stability of stabiliser stock solutions
Description: A preferred biocompatible carrier medium for the stabiliser stock solution comprises an aqueous solution at a pH suitable for intravenous administration. A preferred such aqueous solution is a buffer solution, most preferably phosphate buffer. When the radiopharmaceutical is ^123I-IBZM, the pH of the buffered stock solution is suitably pH 5 to 8, preferably 5.4 to 7, most preferably 5.7 to 6.3. As noted above, gentisic acid solutions tend to suffer from discoloration problems. […] The stock solutions may be prepared under non-sterile conditions, followed by terminal sterilisation using e.g. gamma-irradiation, autoclaving, dry heat or chemical treatment (e.g. with ethylene oxide). Alternatively, the stock solutions may be prepared under aseptic manufacture conditions to give the desired sterile, pyrogen-free product. Preferably the sterile stock solutions are prepared by terminal sterilisation, most preferably by autoclaving. Such autoclaving involves steam heating at over 121° C., so represents stress conditions wherein unwanted chemical reactions might be expected. […] It is therefore surprising that the lack of discolouration for gentisic acid can be maintained under such conditions.

[5] = Radiochemical purity of 123I-IBZM solutions made with autoclaved stabiliser stock solutions (Example 3); conditions: stock solution sterilised in an autoclave at 121 °C
Protocol: Stock solutions of the stabilisers shown were prepared, purged with argon gas and then sealed under argon in a septum-sealed vial with a Teflon™ coated rubber stopper.
The solutions were sterilised by autoclaving for 15 minutes at 121° C., and then allowed to cool to ambient temperature before use.
A small series of ^123I-IBZM solutions was prepared: to each vial ^123I-IBZM in EtOH (925 MBq/cm^3) was added and subsequently an aqueous phosphate buffer solution containing a stabiliser as specified in Table 3 (below), in such a way that the resulting ethanol content was 8% and the radioactive concentration at calibration time was 74 MBq/cm^3 (2 mCi/ml). The RCP of each vial was determined 3 hours after preparation and after storage at room temperature for 51 hours.

Row | principal radiochemical impurity (free 123I-iodide) in the 123I-IBZM preparation [1] [%] | discolouration of solutions on autoclave sterilisation ([4]; oxygen not excluded, autoclave) | stabilisation of 123I-IBZM (in words) [5] | Compound | stabilisation of 123I-MIBG (in words) [2] | stabilisation of 123I-IBZM vs stabiliser concentration (in words) [3] | discolouration of sterile solutions in aqueous buffer on storage ([4]; oxygen gas in the environment minimised) | stability to heat sterilisation (autoclaving, over 121 °C) in buffer solution ([4]; buffer solution)
1 | 2 to 3 | visible discolouration does occur | still an effective stabiliser | O=C(O)c1cc(O)ccc1O [gentisic acid, 2,5-dihydroxybenzoic acid] | effective at much lower concentrations than benzyl alcohol | little or no additional stabilisation benefit is obtained | do not discolour even on storage for more than a year | –
2 | 4 to 5 | – | – | O=C1O[C@H]([C@@H](O)CO)C(O)=C1O [ascorbic acid, reference compound] | – | – | – | does not withstand such heat sterilisation in buffer solution

Reference: US8188296B2, “Gentisic acid for stabilising 123-I radiopharmaceuticals” (GE Healthcare Limited, priority 2005, dated 2012)
